“Also recorded” adds a separate entry of the source.
Key:
Type in all cases: cell-based, human
CD4+ T cells [1] = test: T cell activation markers CD25 and CD69, 24 hours post-stimulation; conditions: concentration not given
Protocol: (§1) In immunological activity experiments, PBMC suspensions were pre-treated with cannabinoid and/or terpene compounds for 30 minutes before treatment with designated stimuli, cultured in 96 well tissue culture plates, and incubated at 37° C. and 5.0% CO2. In pDC experiments, cell suspensions were stimulated with CpG-ODN Type A 2216 (15 μg/mL) (InvivoGen©, San Diego, Calif.) following treatment with cannabinoids. Golgi transport inhibitors Monensin (2 μM)/Brefeldin A (3.0 μg/mL) (Thermo Fisher Scientific, Waltham, Mass.) were added to culture 3 hours post-stimulation, and after 7 hours of stimulation cells were harvested for evaluation by flow cytometry for IFNα and TNFα. In monocyte experiments, cell suspensions were stimulated with 1000 ng/mL LPS (S. typhosa, Sigma Aldrich, St. Louis, Mo.) for 18 hours before harvesting supernatants for IL-1β, Golgi blocked for 6 hours before harvesting cells for assessment of IL-6, or cultured for 48 hours before harvesting cells for assessment of HLA-DR, CD80, and CD86. In phagocytosis experiments, cell suspensions were treated with 3.0 mg/mL of pHrodo Green BioParticles (Thermo Fisher). […] CD25 and CD69 were assessed by flow cytometry 24 hours post-stimulation. In proliferation experiments, cell suspensions were incubated with CFSE Cell Division Tracker (Biolegend) according to manufacturer protocols, harvested 4 days post-stimulation and assessed by flow cytometry. […]
(§2) In brief, pDC, monocyte and T cell were identified using antibodies directed against unique epitopes for each cell type and analyzed by flow cytometry. […] For intracellular staining, fixed cells were permeabilized in BD Permwash and incubated with appropriate antibodies and 7% human AB serum. pDC were identified as CD303+and assessed for intracellular IFNα and TNFα. Monocytes were identified as CD14+ and assessed for extracellular HLA-DR, CD80, CD86, and intracellular TNFα and IL-6. […] T cells were identified as CD3+ and T cell subsets identified by CD4+ and CD8+ and assessed for extracellular CD25 and CD69 and intracellular IFNγ and IL-4. […]

monocytes [2] = test: IL-1β ELISA in supernatants of LPS-stimulated PBMC
Protocol: (§3) In immunological activity experiments, PBMC suspensions were pre-treated with cannabinoid and/or terpene compounds for 30 minutes before treatment with designated stimuli, cultured in 96 well tissue culture plates, and incubated at 37° C. and 5.0% CO2. In pDC experiments, cell suspensions were stimulated with CpG-ODN Type A 2216 (15 μg/mL) (InvivoGen©, San Diego, Calif.) following treatment with cannabinoids. Golgi transport inhibitors Monensin (2 μM)/Brefeldin A (3.0 μg/mL) (Thermo Fisher Scientific, Waltham, Mass.) were added to culture 3 hours post-stimulation, and after 7 hours of stimulation cells were harvested for evaluation by flow cytometry for IFNα and TNFα. In monocyte experiments, cell suspensions were stimulated with 1000 ng/mL LPS (S. typhosa, Sigma Aldrich, St. Louis, Mo.) for 18 hours before harvesting supernatants for IL-1β, Golgi blocked for 6 hours before harvesting cells for assessment of IL-6, or cultured for 48 hours before harvesting cells for assessment of HLA-DR, CD80, and CD86. In phagocytosis experiments, cell suspensions were treated with 3.0 mg/mL of pHrodo Green BioParticles (Thermo Fisher). In T cell experiments, cells were plated on 96 well tissue culture plates pre-coated with 5.0 μg/mL anti-CD3 (clone UCHT1, Biolegend, San Diego, Calif.) and stimulated with 5.0 μg/mL anti-CD28 (clone 28.2, Biolegend) and supplemented with 5.0 ng/mL IL-2 (Roche Applied Science, Indianapolis, Ind.). CD25 and CD69 were assessed by flow cytometry 24 hours post-stimulation. In proliferation experiments, cell suspensions were incubated with CFSE Cell Division Tracker (Biolegend) according to manufacturer protocols, harvested 4 days post-stimulation and assessed by flow cytometry. Cell suspensions were further stimulated with 50 ng/mL phorbol 12-myristate 13-acetate (PMA) and 1000 ng/mL ionomycin (Io) at 4 days post-stimulation for 18 hours, Golgi blocked for 6 hours, and harvested for IL-4 and IFNγ assessment by flow cytometry.
To quantify IL-1β produced by monocytes, supernatants were collected from LPS stimulated cell suspensions after 18 hours and frozen at −80° C. ELISA MAX from Biolegend was used as per manufacturer protocol to quantify IL-1β to a sensitivity of […].

PBMC = test: Immune modulation survey of single compounds (all functional responses); conditions: 0.001-10 μM
Protocol: as §1, with “TNFα.” for “TNFα. In monocyte experiments, cell suspensions were stimulated with 1000 ng/mL LPS (S. typhosa, Sigma Aldrich, St. Louis, Mo.) for 18 hours before harvesting supernatants for IL-1β, Golgi blocked for 6 hours before harvesting cells for assessment of IL-6, or cultured for 48 hours before harvesting cells for assessment of HLA-DR, CD80, and CD86. In phagocytosis experiments, cell suspensions were treated with 3.0 mg/mL of pHrodo Green BioParticles (Thermo Fisher).”
In brief, pDC, monocyte and T cell were identified using antibodies directed against unique epitopes for each cell type and analyzed by flow cytometry. […] For intracellular staining, fixed cells were permeabilized in BD Permwash and incubated with appropriate antibodies and 7% human AB serum. pDC were identified as CD303+and assessed for intracellular IFNα and TNFα. […]

CD8+ T cells [3] = test: Intracellular IFNγ after anti-CD3/anti-CD28 stimulation and PMA/ionomycin; conditions: 0.01-1 μM; vs vehicle
Protocol: as §3
as §2, with “cytometry. Cells were fixed in BD CytoFix and resuspended in FACS buffer for extracellular staining.” for “cytometry.”

monocytes [4] = test: Co-stimulatory markers HLA-DR, CD80, CD86 on monocytes after LPS; conditions: 2 days
Protocol: as §3
(§4) In brief, pDC, monocyte and T cell were identified using antibodies directed against unique epitopes for each cell type and analyzed by flow cytometry. Cells were fixed in BD CytoFix and resuspended in FACS buffer for extracellular staining. To determine the changes in cell viability in mixed PBMC, gates were first set on singlet events, then CD45+ cells, then populations identified by CD3+ (T cells) and CD14+ (monocytes), and then 7-AAD- for viability. Likewise, for pDC viability experiments, pDC were identified as CD303+ and viable by exclusion of Near IR L/D stain (Life Technologies, Carlsbad, Calif.). For intracellular staining, fixed cells were permeabilized in BD Permwash and incubated with appropriate antibodies and 7% human AB serum. pDC were identified as CD303+and assessed for intracellular IFNα and TNFα. Monocytes were identified as CD14+ and assessed for extracellular HLA-DR, CD80, CD86, and intracellular TNFα and IL-6. In phagocytosis experiments, PBMC were identified as CD45+ and monocytes were identified based on side scatter and then phagocytosing monocytes. T cells were identified as CD3+ and T cell subsets identified by CD4+ and CD8+ and assessed for extracellular CD25 and CD69 and intracellular IFNγ and IL-4. To analyze T cell proliferation, FlowJo 10.0 proliferation tool was used by setting the undivided peak of CFSE stained cells in each sample.

CD4+ T cells [5] = test: Intracellular IFNγ and IL-4 after anti-CD3/anti-CD28 stimulation and PMA/ionomycin; conditions: vs vehicle
Protocol: as §3
as §2, with “cytometry. Cells were fixed in BD CytoFix and resuspended in FACS buffer for extracellular staining.” for “cytometry.”

[6] = tested on: plasmacytoid dendritic cells (pDC); test: IFNα and TNFα in pDC of PBMC stimulated with CpG-ODN (intracellular staining); conditions: vs vehicle; for IFNα production by pDC: 0.01, 0.1, and 1.0 μM
Protocol: as §3, §4

monocytes [7] = test: TNFα+ monocytes after CpG-ODN stimulation (intracellular staining); conditions: 10 μM; CpG-ODN 15 μg/mL, 6 hours; vs vehicle
Protocol: FIGS. 9A-9B reveal the TNFα decreasing potential of cannabinol (CBN). […] PBMC were isolated from human peripheral blood and pre-treated with the indicated concentrations of cannabinol for 30 minutes, followed by stimulation with 15 μg/mL CpG-ODN for 6 hours (FIG. 9A). Cells were non-enzymatically released from culture plates and assessed for the percentage of TNFα+ monocytes (FIG. 9A) by intracellular staining. For FIG. 9B, PBMC were isolated from human peripheral blood and pre-treated with the indicated concentrations of cannabinol for 30 minutes, followed by treatment with 3.0 mg/mL of pHrodo Green BioParticles (FIG. 9B). In FIG. 9B, cells were treated with 3.0 mg/mL of pHrodo Green BioParticles and assessed for phagocytosis monocytes by flow cytometry within 2 hours. Data are normalized to each donor's vehicle control when appropriate and presented as mean±SEM. N=4-6 donors per treatment group. […] *p<0.05 when compared to VH (FIG. 9A), or **p<0.01 when compared to VH (FIG. 9B), by repeated measure one-way ANOVA with Dunnett's posttest.
as §2, with “cytometry. Cells were fixed in BD CytoFix and resuspended in FACS buffer for extracellular staining.” for “cytometry.”

CD8+ T cells [8] = test: T cell proliferation (CFSE, FlowJo Proliferation tool); conditions: 0.01 μM
Protocol: as §3
as §2, with “cytometry. Cells were fixed in BD CytoFix and resuspended in FACS buffer for extracellular staining.” for “cytometry.”

CD4+ T cells [9] = test: as above; conditions: 0.01 μM
Protocol: as §3
as §2, with “cytometry. Cells were fixed in BD CytoFix and resuspended in FACS buffer for extracellular staining.” for “cytometry.”

[10] = 10 μM, LPS 1000 ng/mL, vs vehicle
[11] = indicated concentrations (0.001-10 μM)

C=CC(C)(O)CC/C=C(\C)CCC=C(C)C (stereo not drawn) [trans-nerolidol, trans nerolidol]
% CD25+ in CD4+ T cells (activation marker) (CD4+ T cells [1]): increased | IL-1β in monocytes (monocytes [2]; 0.01 μM, LPS 1000 ng/mL, vs vehicle): enhanced | IL-1β in monocytes (monocytes [2]; 0.01 μM, LPS 1000 ng/mL, vs vehicle, listed as tN): significantly increased

C=CC(C)(O)CCC=C(C)C (stereo not drawn) [Linalool]
any other immunological functional responses measured in the immune modulation survey (PBMC): did not have any statistically significant effects | IL-1β secretion in monocytes (monocytes [2]; 0.001 μM, LPS 1000 ng/mL, vs vehicle): significantly increased | IL-1β production (monocytes [2]; any other concentration (tested 0.001-10 μM, other than 0.001 μM)): did not exhibit any effects

CCCCCc1cc(O)c(C/C=C(\C)CCC=C(C)C)c(O)c1 [CBG, cannabigerol]
IFNγ in CD8+ T cells (CD8+ T cells [3]): significantly decreased | HLA-DR co-stimulatory marker in monocytes (monocytes [4]; 10 μM, vs vehicle): increased; also recorded: enhanced | CD86+ co-stimulatory marker in monocytes (monocytes [4]; 1-10 μM, vs vehicle): increased; also recorded: enhanced | IL-1β in monocytes (monocytes [2]; [10]): significantly decreased | IFNγ in CD4+ T cells (CD4+ T cells [5]; 0.01-1 μM): significantly decreased | IL-4 levels in CD4+ T cells (CD4+ T cells [5]; 0.1-1 μM): significantly decreased

CCCCCc1cc(O)c2c(c1)OC(C)(C)[C@@H]1CCC(C)=C[C@@H]21 [THC, (6aR,10aR)-delta-9-tetrahydrocannabinol, reference compound]
IFNα in plasmacytoid dendritic cells (pDC) ([6]; 10 μM, CpG-ODN 15 μg/mL): significantly decreased | TNFα in plasmacytoid dendritic cells (pDC) ([6]; 10 μM, CpG-ODN 15 μg/mL): significantly decreased | TNFα in monocytes (monocytes [7]): significantly decreased | proliferation of CD8+ T cells (CD8+ T cells [8]): significantly increased | proliferation of CD4+ T cells (CD4+ T cells [9]): significantly increased | CD80+ co-stimulatory marker in monocytes (monocytes [4]; 10 μM, vs vehicle): significantly decreased | CD86+ co-stimulatory marker in monocytes (monocytes [4]; [11]): did not cause a statistically significant change | HLA-DR+ co-stimulatory marker in monocytes (monocytes [4]; [11]): did not cause a statistically significant change | IL-1β in monocytes (monocytes [2]; [10]): significantly decreased

CC1=CCC2CC1C2(C)C (stereo not drawn) [α-Pinene, α-pinene]
IFNα production by pDC ([6]; CpG-ODN): significantly suppressed | IFNα production by pDC ([6]; CpG-ODN, listed as Alpha-Pinene): significantly decreased | TNFα production by pDC ([6]; 0.1 and 1.0 μM, CpG-ODN): significantly suppressed

Source: patent publication US20220110910A1, “CANNABINOID-CONTAINING COMPLEX MIXTURES FOR THE TREATMENT OF CYTOKINE RELEASE SYNDROME WHILE PRESERVING KEY ANTI-VIRAL IMMUNE REACTIONS” (GBS Global BioPharma, Inc., priority 2020, published 2022)
